The record followed here is patent publication US9663510B2, “Substituted triazolopyridines and their use as TTK inhibitors” (Bayer Intellectual Property GmbH, priority 2011, dated 2017).

The target in assay [1] is human kinase Mps-1 (Homo sapiens (Human), UniProt P33981). In words: Mps-1 kinase assay (TR-FRET). The format is biochemical.
Assay [2] has as its system HeLa human cervical tumor cells. Description: HeLa cell proliferation assay (crystal violet). Type of assay: cell-based. The note with it: 96 h, 4 days incubation, read-out: Inhibition of cell proliferation, cell Line: HeLa IC50.
Where [3] appears, read: read-out: Mps-1 Inhibition, IC50 (Assay with 10 μM ATP), 10 μM ATP.
[4] abbreviates: read-out: Mps-1 Inhibition, IC50 (Assay with 2 mM ATP), 2 mM ATP.

Molecules are shown by their SMILES. Where two headings read alike, the source gives them in different places.

Chain of human kinase Mps-1 (P33981 whole entry): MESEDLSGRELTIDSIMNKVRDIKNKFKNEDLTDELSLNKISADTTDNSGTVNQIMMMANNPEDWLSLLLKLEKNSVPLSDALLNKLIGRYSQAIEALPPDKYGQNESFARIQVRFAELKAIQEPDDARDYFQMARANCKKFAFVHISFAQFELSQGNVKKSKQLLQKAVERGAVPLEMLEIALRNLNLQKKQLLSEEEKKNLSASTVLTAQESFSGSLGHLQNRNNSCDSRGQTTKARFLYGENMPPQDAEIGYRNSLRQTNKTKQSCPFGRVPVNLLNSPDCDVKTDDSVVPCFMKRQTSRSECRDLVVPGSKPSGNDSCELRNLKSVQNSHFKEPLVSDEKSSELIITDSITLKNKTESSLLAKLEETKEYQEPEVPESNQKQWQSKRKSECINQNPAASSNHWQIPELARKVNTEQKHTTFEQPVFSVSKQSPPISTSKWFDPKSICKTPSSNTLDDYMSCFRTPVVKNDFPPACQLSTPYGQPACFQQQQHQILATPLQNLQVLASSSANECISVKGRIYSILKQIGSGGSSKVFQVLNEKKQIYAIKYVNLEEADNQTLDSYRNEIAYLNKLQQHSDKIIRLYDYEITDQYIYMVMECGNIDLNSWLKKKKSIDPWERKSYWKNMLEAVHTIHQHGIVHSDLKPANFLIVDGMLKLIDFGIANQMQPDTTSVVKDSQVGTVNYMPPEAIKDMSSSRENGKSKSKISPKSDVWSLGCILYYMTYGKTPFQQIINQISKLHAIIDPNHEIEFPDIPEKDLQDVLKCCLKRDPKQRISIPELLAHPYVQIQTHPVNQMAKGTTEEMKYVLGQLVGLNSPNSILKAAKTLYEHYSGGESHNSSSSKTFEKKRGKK

Turning to `N[C@@H](C(=O)Nc1ccc(-c2ccc3nc(Nc4ccc(C(=O)N5CCCC5)cc4OCC(F)(F)F)nn3c2)cc1)c1ccc(F)cc1` [Example 01.25, (2R)-2-amino-2-(4-fluorophenyl)-N-[4-(2-{[4-(pyrrolidin-1-ylcarbonyl)-2-(2,2,2-trifluoroethoxyl)phenyl]amino}[1,2,4]triazolo[1,5-a]pyridin-6-yl)phenyl]ethanamide], the IC50 is below 1 nM in assay [1] (setting [3]), below 1 nM in assay [1] (setting [4]) and below 200 nM in assay [2].

For the compound `COc1cc(C(=O)N2CCC2)ccc1Nc1nc2ccc(-c3ccc(NC(=O)[C@H](N)c4ccc(F)cc4)cc3)cn2n1` [Example 01.22, (2R)-2-amino-N-[4-(2-{[4-(azetidin-1-ylcarbonyl)-2-methoxyphenyl]amino}[1,2,4]triazolo[1,5-a]pyridin-6-yl)phenyl]-2-(4-fluorophenyl)ethanamide], the IC50 was below 1 nM in assay [1] (setting [3]), below 1 nM in assay [1] (setting [4]) and below 200 nM in assay [2].

In the case of `COc1cc(C(=O)N2CC(F)C2)ccc1Nc1nc2ccc(-c3ccc(NC(=O)[C@H](N)c4ccc(F)cc4)cc3)cn2n1` [Example 01.21, (2R)-2-amino-N-{4-[2-({4-[(3-fluoroazetidin-1-yl)carbonyl]-2-methoxyphenyl}amino)[1,2,4]triazolo[1,5-a]pyridin-6-yl]phenyl}-2-(4-fluorophenyl)ethanamide], the IC50 in assay [1] (setting [3]) was below 1 nM; in assay [1] (setting [4]), below 1 nM; in assay [2], below 200 nM.

On to `COc1cc(S(C)(=O)=O)ccc1Nc1nc2ccc(-c3ccc(NC(=O)[C@H](CO)c4ccc(F)cc4)cc3)cn2n1` [Example 01.17, (2S)-2-(4-fluorophenyl)-3-hydroxy-N-[4-(2-{[2-methoxy-4-(methylsulfonyl)phenyl]amino}[1,2,4]triazolo[1,5-a]pyridin-6-yl)phenyl]propanamide], for which the IC50 in assay [1] (2 mM ATP) was 4.8 nM; in assay [1] (setting [3]), below 1 nM; in assay [2] it was below 600 nM.

For `COc1cc(N2CCOC2=O)ccc1Nc1nc2ccc(-c3ccc(NC(=O)[C@H](N)c4ccc(F)cc4)cc3)cn2n1` [Example 01.20, (2R)-2-amino-2-(4-fluorophenyl)-N-[4-(2-{[2-methoxy-4-(2-oxo-1,3-oxazolidin-3-yl)phenyl]amino}[1,2,4]triazolo[1,5-a]pyridin-6-yl)phenyl]ethanamide], the IC50 in assay [1] (2 mM ATP) is 1.5 nM; in assay [1] (setting [3]), below 1 nM; in assay [2], below 200 nM.

Take `COc1cc(C(=O)N2CCCC2)ccc1Nc1nc2ccc(-c3ccc(NC(=O)[C@H](C)c4ccc(F)cc4)cc3)cn2n1` [Example01.13, (2R)-2-(4-fluorophenyl)-N-[4-(2-{[2-methoxy-4-(pyrrolidin-1-ylcarbonyl)phenyl]amino}[1,2,4]triazolo[1,5-a]pyridin-6-yl)phenyl]propanamide]: the IC50 was below 1 nM in assay [1] (setting [3]), below 1 nM in assay [1] (setting [4]) and below 400 nM in assay [2].

In the case of `C[C@@H](C(=O)Nc1ccc(-c2ccc3nc(Nc4ccc(C(=O)N5CC(O)C5)cc4OCC(F)(F)F)nn3c2)cc1)c1ccc(F)cc1` [Example01.15, (2R)-2-(4-fluorophenyl)-N-{4-[2-({4-[(3-hydroxyazetidin-1-yl)carbonyl]-2-(2,2,2-trifluoroethoxy)phenyl}amino)[1,2,4]triazolo[1,5-a]pyridin-6-yl]phenyl}propanamide], the IC50 was below 1 nM in assay [1] (setting [3]), below 1 nM in assay [1] (setting [4]) and below 100 nM in assay [2].

Turning to `O=C(Nc1ccc(-c2ccc3nc(Nc4ccc(C(=O)N5CC(F)C5)cc4OCC(F)(F)F)nn3c2)cc1)[C@H](CO)c1ccc(F)cc1` [Example 01.18, (2S)—N-{4-[2-({4-[(3-fluoroazetidin-1-yl)carbonyl]-2-(2,2,2-trifluoroethoxyl)phenyl}amino)[1,2,4]triazolo[1,5-a]pyridin-6-yl]phenyl}-2-(4-fluorophenyl)-3-hydroxypropanamide], the values for the IC50 in assay [1] (setting [3]), in assay [1] (setting [4]) and in assay [2] were below 1 nM, below 1 nM and below 100 nM, respectively.

Take `CS(=O)(=O)c1ccc(Nc2nc3ccc(-c4ccc(NC(=O)[C@H](N)c5ccc(F)cc5)cc4)cn3n2)c(OCC(F)(F)F)c1` [Example 01.19, (2R)-2-amino-2-(4-fluorophenyl)-N-[4-(2-{[4-(methylsulfonyl)-2-(2,2,2-trifluoroethoxyl)phenyl]amino}[1,2,4]triazolo[1,5-a]pyridin-6-yl)phenyl]ethanamide]: the IC50 in assay [1] (setting [3]) was below 1 nM; in assay [1] (setting [4]) it was below 1 nM; in assay [2], below 200 nM.

In the case of `COc1cc(C(=O)N2CCCC2)ccc1Nc1nc2ccc(-c3ccc(NC(=O)[C@H](N)c4ccc(F)cc4)cc3)cn2n1` [Example 01.23, (2R)-2-amino-2-(4-fluorophenyl)-N-[4-(2-{[2-methoxy-4-(pyrrolidin-1-ylcarbonyl)phenyl]amino}[1,2,4]triazolo[1,5-a]pyridin-6-yl)phenyl]ethanamide], the values for the IC50 in assay [1] (setting [3]), in assay [1] (setting [4]) and in assay [2] were below 1 nM, below 1 nM and below 400 nM, respectively.

Consider `C[C@@H](C(=O)Nc1ccc(-c2ccc3nc(Nc4ccc(C(=O)N5CCCC5)cc4OCC(F)(F)F)nn3c2)cc1)c1ccc(F)cc1` [Example 01.16, (2R)-2-(4-fluorophenyl)-N-[4-(2-{[4-(pyrrolidin-1-ylcarbonyl)-2-(2,2,2-trifluoroethoxyl)phenyl]amino}[1,2,4]triazolo[1,5-a]pyridin-6-yl)phenyl]propanamide], for which the IC50 is 1.3 nM in assay [1] (2 mM ATP), below 1 nM in assay [1] (setting [3]) and below 100 nM in assay [2].

On to `COc1cc(C(=O)N(C)C)ccc1Nc1nc2ccc(-c3ccc(NC(=O)[C@H](C)c4ccc(F)cc4)cc3)cn2n1` [Example01.12, 4-{[6-(4-{[(2R)-2-(4-fluorophenyl)propanoyl]amino}phenyl)[1,2,4]triazolo[1,5-a]pyridin-2-yl]amino}-3-methoxy-N,N-dimethylbenzamide], for which the IC50 in assay [1] (setting [3]) is below 1 nM; in assay [1] (setting [4]), below 1 nM; in assay [2], below 200 nM.

As for `N[C@@H](C(=O)Nc1ccc(-c2ccc3nc(Nc4ccc(C(=O)N5CC(F)C5)cc4OCC(F)(F)F)nn3c2)cc1)c1ccc(F)cc1` [Example 01.24, (2R)-2-amino-N-{4-[2-({4-[(3-fluoroazetidin-1-yl)carbonyl]-2-(2,2,2-trifluoroethoxyl)phenyl}amino)[1,2,4]triazolo[1,5-a]pyridin-6-yl]phenyl}-2-(4-fluorophenyl)ethanamide], the IC50 in assay [1] (setting [3]) is below 1 nM; in assay [1] (setting [4]), below 1 nM; in assay [2], below 100 nM.

In the case of `C[C@@H](C(=O)Nc1ccc(-c2ccc3nc(Nc4ccc(C(=O)N5CC(F)C5)cc4OCC(F)(F)F)nn3c2)cc1)c1ccc(F)cc1` [Example01.14, (2R)—N-{4-[2-({4-[(3-fluoroazetidin-1-yl)carbonyl]-2-(2,2,2-trifluoroethoxy)phenyl}amino)[1,2,4]triazolo[1,5-a]pyridin-6-yl]phenyl}-2-(4-fluorophenyl)propanamide], the IC50 in assay [1] (setting [3]) and in assay [1] (setting [4]) was below 1 nM each time.
